In patent publication US11568956B2, “Methods for identifying inhibitors of amyloid protein aggregation” (Treventis Corporation, priority 2008, dated 2023):

Molecular target: T1, Aβ 1-40 (Homo sapiens, UniProt P05067)
T1 construct: ThT aggregation assays of Aβ 1-40 and alpha synuclein
Assay: ThT aggregation assay of Aβ 1-40
Type: biochemical
Description: The anti-amyloid activity of these compounds was evaluated by ThT aggregation assays of Aβ 1-40 and alpha synuclein, as set forth below. The column “A-Syn” below is a functional ThT aggregation assay of alpha synuclein.

T1 sequence (P05067 672-711 limits assumed): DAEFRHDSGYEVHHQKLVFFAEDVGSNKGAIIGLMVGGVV

Row | IC50 [µM] | Structure (SMILES)
1 | > 20 | COc1ccc2ccccc2c1/C=N/c1ccc(S(N)(=O)=O)cc1
2 | > 20 | O=C(COc1ccccc1)Nc1ccc2c(c1)C(=O)NC2=O
3 | > 20 | COc1ccc(N(C)S(=O)(=O)c2ccc(NS(=O)(=O)c3cccs3)cc2)c(OC)c1
4 | > 20 | COc1ccccc1N1CCN(C(=O)CN(c2ccc(F)cc2)S(=O)(=O)c2ccccc2)CC1
5 | > 20 | COc1ccccc1NC(=O)C1CC(O)CN1C(=O)OCc1ccccc1 (stereo not drawn)
6 | > 100 | COc1ccc(CNCc2ccc(F)cc2)cc1OC
7 | > 100 | COc1ccc2cc(C(C)N)ccc2c1 (stereo not drawn)
8 | > 100 | c1ccc2c(c1)CCCC2NCc1ccncc1 (stereo not drawn)
9 | > 50 | COc1ccc(CC(=O)Nc2ccc(S(=O)(=O)Nc3nc(C)cc(C)n3)cc2)cc1
10 | > 50 | COc1ccc(NS(=O)(=O)c2ccc(NS(=O)(=O)c3cccs3)cc2)c(OC)c1
11 | > 50 | COc1ccc(NS(=O)(=O)c2ccc(NS(=O)(=O)c3ccc(Br)s3)cc2)c(OC)c1
12 | > 50 | COc1ccc(C2(C(=O)Nc3ccc(S(=O)(=O)Nc4ncccn4)cc3)CCCC2)cc1OC
